Counter-ions that a name gives are not always drawn.

Consider two compounds from patent US20160120915A1, “METHODS FOR MANIPULATING IMMUNE RESPONSES BY ALTERING MICROBIOTA” (NEW YORK UNIVERSITY, priority 2013, published 2016).

In test [1] the test system is terminal ileum. In words: PAT: ileal gene expression profiling by whole genome microarray, 6-week mice. It counts as in vivo, C57BL/6 mice. To be noted: 6-week PAT vs Control, T-test p<0.05 and fold change ≧1.2 or ≦0.8. On the procedure:
(§1) Ileal gene expression profiling of STAT, PAT, and control animal groups, was performed using the Affymetrix Genechip system (Affymetrix). Total RNA quality and quantity were determined using the Agilent 2100 Bioanalyser and Nanodrop ND-1000. Total RNA (100 ng) was used to prepare cDNA following the Affymetrix […] Express Kit labelling protocol (Affymetrix). Standardized array processing procedures recommended by Affymetrix were performed, including hybridization, fluidics processing and scanning of the Affymetrix MG-430 2.0 arrays. GeneSpring GX11 software (Agilent Technologies) was used to normalize the raw data (Affymetrix CEL files) by Robust Multichip Average algorithm (RMA).
1127 and 3065 reproducibly regulated genes were identified from ˜45,000 genes of the mouse genome by T-test (p<0.05) and fold change (≧1.2 or ≦0.8) in 6-week PAT (Panel A; Control vs Amoxicillin and Panel B; Control vs Tylosin), respectively (FIG. 22). DAVID analysis was performed using the regulated genes, and Gene Set Enrichment analysis (GSEA) was performed using whole gene data.
(C, n=3), amoxicillin (A, n=3), and tylosin treated mice (T, n=3).

In test [2] the test system is terminal ileum. In words: PAT: ileal expression by qPCR in 6-week mice. To be noted: 6-week male mice, 3 pulses, vs control, p<0.05. Type of test: in vivo, C57BL/6 mice. For orientation: In qPCR the cycle at which signal appears reflects the starting amount.
Test [3] deals with intestinal microbial community. In words: NOD: 16S rRNA V4 sequencing of fecal, cecal and ileal microbiota. To be noted: for fecal microbial community structure (PCoA, unweighted unifrac): all time points. It counts as in vivo, NOD mice. The method, then:
Fecal pellets were collected at least weekly from weaning at 3 weeks of age until the study termination at 31 weeks of age, and stored at −20° C. until processing. DNA was extracted from fecal pellets using the PowerLyzer™ PowerSoil® DNA Isolation Kit (MoBio, Carlsbad Calif.) and stored at −20° C. Cecal and ileal samples were collected upon necropsy at 6 weeks of age, upon diabetes development, or at the termination of the experiment at […] of age, and extracted using the PowerLyzer™ PowerSoil® DNA Isolation Kit.
Fecal samples collected at 3, 6, 10, and 13 weeks of age, and cecal and ileal samples collected at 6 weeks of age were used for sequencing. The V4 region of the 16S rRNA gene was amplified using universal primers 515 forward primer (5′ GTGCCAGCMGCCGCGGTAA 3′ SEQ ID NO: 54) and 806 reverse primer (5′ […] 3′ SEQ ID NO: 55) [Escherichia coli strain 83972 sequence (greengenes accession no. prokM-SA_id:470367] linked to a 12 base Goley barcode for multiplexing (Caporaso et al., The ISME Journal 2012; 6:1621-4. Caporaso et al., Proc. Natl. Acad. Sci. USA, 2011; 108 Suppl 1:4516-22). Sequencing was performed on the Miseq platform with a 15% PhiX spike.
The sequences were analyzed using the macqiime 1.7.0 software (Caporaso et al., Nature Methods 2010; 7:335-6). Sequences were aligned using the Ribosomal Database Project (RDP) classifier (Wang et al., Applied and Environmental Microbiology 2007; 73:5261-7). Taxonomy was assigned based on the GreenGenes May 2013. For alpha diversity measurements, observed number of species and phylogenic distance (PD) were calculated. For beta diversity measurements, unweighted unifrac distances were calculated (Lozupone C, Knight R., Applied and Environmental Microbiology 2005; 71:8228-35). The unweighted unifrac distances were used for principal coordinates analysis (PCoA), and visualized using the KiNG software. Further sequencing analysis and correlations were performed using the phyloseq and ellipse packages in R.

Test [4] relates to ileal tissue. Put plainly: Ileal gene expression profiling by whole genome microarray, 8-week EarlySTAT. Type of test: in vivo, C57BL/6J mice. The method, then:
as §1
997 reproducibly regulated genes were identified from ˜45,000 genes of the mouse genome by T-test (p<0.05) and fold change (≧1.2 or ≦0.8) in 8-week STAT mice (FIG. 8). DAVID analysis was performed using the regulated genes, and Gene Set Enrichment analysis (GSEA) was performed using whole gene data.

For the compound `CC[C@H]1OC(=O)C[C@@H](O)[C@H](C)[C@@H](O[C@@H]2O[C@H](C)[C@@H](O[C@H]3C[C@@](C)(O)[C@@H](O)[C@H](C)O3)[C@H](N(C)C)[C@H]2O)[C@@H](CC=O)C[C@@H](C)C(=O)/C=C/C(C)=C/[C@@H]1CO[C@@H]1O[C@H](C)[C@@H](O)[C@@H](OC)[C@H]1OC` [Tylosin, Tylosin tartrate], in test [1], the “reproducibly regulated genes out of ~45,000 genes of the mouse genome” value was 3065. Further, the “ileal Relmβ expression” value in test [2] is “significantly lower”. In addition, the “cecal and ileal microbial composition” value in test [3] (6-week old NOD mice, Adonis test) is on record as “significantly alters”. Besides, the Bacteroides entry in test [3] (PAT samples after the first antibiotic pulse) was “decrease”. The “Verrucomicrobia (phylum level)” value in test [3] (PAT samples after the first antibiotic pulse, vs control) was “large bloom”. In addition, the “Akkermansia muciniphila (species level)” value in test [3] (PAT samples starting at 3 weeks) is given as “large bloom”. Besides, the “Phylogenic diversity (PD)” value in test [3] (all sample times, all sample types, males and females, vs controls) is reported as “lower”. The OTU richness entry in test [3] (all sample times, all sample types, males and females, vs controls, FDR p<0.05) is reported as “lower”. Also, the “fecal microbial community structure (PCoA, unweighted unifrac)” value in test [3] (males and females) was “cluster distinctly from controls”. In test [3] (females and males), the “relative abundance of Bifidobacterium genus” value is given as “decreases”; the “relative abundance of three detectable Bifidobacterium species (B. animalis, B. adolescentis, B. pseudolongum)” value is reported as “decreases”; the “relative abundance of unnamed Bifidobacterium species” value is on record as “decreases”. Besides, the “intragroup beta diversity (unweighted Unifrac distance)” value in test [3] (male NOD mice, vs controls) is reported as “lower”.
On to `CC1(C)S[C@@H]2[C@H](NC(=O)COc3ccccc3)C(=O)N2[C@H]1C(=O)[O-].[K+]` [STAT, penicillin VK], for which the “Akkermansia muciniphila (species level)” value in test [3] (STAT male cecal and ileal samples, vs controls (less than PAT)) is “more”. For the same compound, the “prevalence of Bifidobacterium sp.” value in test [3] (STAT-antibiotic-treated NOD mice vs controls) is listed as “not different”. In addition, in test [3] (males and females), the “fecal microbial community structure (PCoA, unweighted unifrac)” value is given as “essentially overlap”. The “bloom in Verrucomicrobia” value in test [3] (cecal and ileal samples from male STAT mice) was “greater than in controls but less than in PAT”. Further, in test [3] (females), the “abundance of all 3 named Bifidobacterium species” value is on record as “increased abundance”. Besides, the OTU richness result in test [3] (females, only at 3 weeks of age, vs controls) is reported as “significantly lower”; in test [3] (males, at 3 and 6 weeks of age, vs controls), “significantly lower”. In test [4] (8-week STAT mice, T-test p<0.05 and fold change ≧1.2 or ≦0.8), the “reproducibly regulated genes out of ~45,000 genes of the mouse genome” value is given as 997. Besides, the “SAA1 expression in ileal tissue (microarray/GSEA)” value in test [4] (8-week, STAT vs control) is given as “strong down-regulation”.
